Columns and labels:
[1] = tested on: dermal fibroblasts isolated from 17 individuals; assay: Real time RT-PCR of ECM components, nuclear hormone receptors and coregulators in fibroblasts from 17 individuals; format: cell-based, human; conditions: 24 hours
Description: Total RNA was extracted from cells using RNA aqueous kit (Ambion, USA). First-strand cDNAs were synthesized with Superscript III reverse transcriptase (Invitrogen, USA) and 1 μg of total RNA using oligo d(T) priming in a final reaction volume of 40 μL.
Levels of specific mRNAs were measured by real-time RT-PCR using Platinum SYBR Green qPCR SuperMix UDG (Invitrogen) according the protocol on the LightCycler 2.0 (Roche, US). The cycling program steps were: for one cycle 50° C. 2 min, for one cycle 95° C. 2 min and for 45 cycles: 95° C. 10 s, 60° C. 10 s, 72° C. 10 s. All samples were run in triplicates. Results were analyzed with the comparative Ct method (from Applied Biosystems manual; Livak and Schmittgen, 2001). Every sample was normalized for the housekeeping gene GAPDH. Transcript levels in the atRA and TGFb1 treated samples were compared to control samples.

[2] = tested on: skin fibroblasts from 30 individuals; assay: Combined score of expression stimulation of 5 genes in fibroblast isolates (FIG. 1); format: cell-based, human; conditions: 24 hour treatment, atRA 10^-7 M, Matrixyl 1 μM, KappaElastin 1 μM
Description: Human dermal fibroblasts were grown in DMEM cell culture media containing 10% fetal bovine serum and 1% penicillin/streptomycin (Invitrogen). For all experiments, third-passage fibroblasts were used one day after reaching confluence. […] After 24 hour treatment RNA and protein was isolated and analyzed for the expression of components of ECM and transcriptional regulators.
Total RNA from various human tissues was purified using RNAwiz (Ambion, USA) and subjected to subsequent DNase I treatment using the DNA-Free kit (Ambion). Total RNA from cancer cells was purified by using 4PCRmini kit (Ambion). First-strand cDNAs were synthesized with Superscript III reverse transcriptase (Invitrogen, USA) and 5 μg of total RNA using oligo d(T) priming in a final reaction volume of 50 μL
The cDNA was amplified by PCR using the 2.5 U Hot-Firepol (Solis BioDyne, Estonia) and buffer Yellow (Naxo, Estonia). Reaction was performed in a 10 ul volume, using 0.5 ul cDNA as a template. Following primer sets were designed for this study:
The combined score of expression stimulation of 5 genes was calculated and blotted for each fibroblast isolate. […] This biological variation provides a good biological rational to use molecular diagnostics for matching cosmetics product and skin cells of specific individual (personalized cosmetics).

[3] = fibroblasts from 17 individuals, 10 ng/ml

Substance: TGFbeta1: well-characterized profibrotic factor
- expression of metalloproteinases and PPARγ ([1]; 10 ng/ml, 17 individuals): suppresses significantly
- gene expression of majority of collagens ([1]; 10 ng/ml, 17 individuals): strongly upregulated
- individual variation of collagen gene expression between individual fibroblasts ([1]; 10 ng/ml, 17 individuals): up to 13 fold
- variation of expression of PPARγ between different individuals ([1]; 10 ng/ml, 17 individuals): up to 17 fold
- effect on gene expression of different ECM genes compared with atRA ([1]; TGFβ1 10 ng/ml vs atRA 1 μM): noticeably stronger
- CBP expression in TGFbeta1 treatment compared to control, from-to between individuals [1, 3]: (from −2.24 to 2.29) fold
- COL1A1 expression in TGFbeta1 treatment compared to control, from-to between individuals [1, 3]: (from −1.11 to 7.75) fold
- COL1A2 expression in TGFbeta1 treatment compared to control, from-to between individuals [1, 3]: (from 1.14 to 9.58) fold
- COL3A1 expression in TGFbeta1 treatment compared to control, from-to between individuals [1, 3]: (from −1.75 to 6.82) fold
- COL4A1 expression in TGFbeta1 treatment compared to control, from-to between individuals [1, 3]: (from 2.52 to 16.22) fold
- COL5A1 expression in TGFbeta1 treatment compared to control, from-to between individuals [1, 3]: (from −1.61 to 6.08) fold
- COL5A2 expression in TGFbeta1 treatment compared to control, from-to between individuals [1, 3]: (from 1.3 to 3.42) fold
- CTGF expression in TGFbeta1 treatment compared to control, from-to between individuals [1, 3]: (from −1.8 to 11.00) fold
- ELN expression in TGFbeta1 treatment compared to control, from-to between individuals [1, 3]: (from −3.33 to 10.63) fold
- FN 1 transcr.v.1 expression in TGFbeta1 treatment compared to control, from-to between individuals [1, 3]: (from −3.23 to 3.75) fold
- Individual variation of gene expression in TGFbeta1 treatment: CBP [1, 3]: 4.53 fold
- Individual variation of gene expression in TGFbeta1 treatment: COL1A1 [1, 3]: 8.86 fold
- Individual variation of gene expression in TGFbeta1 treatment: COL1A2 [1, 3]: 8.44 fold
- Individual variation of gene expression in TGFbeta1 treatment: COL3A1 [1, 3]: 8.57 fold
- Individual variation of gene expression in TGFbeta1 treatment: COL4A1 [1, 3]: 13.7 fold
- Individual variation of gene expression in TGFbeta1 treatment: COL5A1 [1, 3]: 7.69 fold
- Individual variation of gene expression in TGFbeta1 treatment: COL5A2 [1, 3]: 2.12 fold
- Individual variation of gene expression in TGFbeta1 treatment: CTGF [1, 3]: 12.8 fold
- Individual variation of gene expression in TGFbeta1 treatment: ELN [1, 3]: 13.96 fold
- Individual variation of gene expression in TGFbeta1 treatment: FN 1 transcr.v.1 [1, 3]: 6.98 fold
- Individual variation of gene expression in TGFbeta1 treatment: MMP1, collagenase 1 [1, 3]: 7.02 fold
- Individual variation of gene expression in TGFbeta1 treatment: MMP2 gelatinase [1, 3]: 4.77 fold
- Individual variation of gene expression in TGFbeta1 treatment: MMP3 stromelysin [1, 3]: 5.8 fold
- Individual variation of gene expression in TGFbeta1 treatment: MMP7 [1, 3]: 32.8 fold
- Individual variation of gene expression in TGFbeta1 treatment: MMP10, stromelysin 2 [1, 3]: 45.93 fold
- Individual variation of gene expression in TGFbeta1 treatment: NCOA1 [1, 3]: 5.64 fold
- Individual variation of gene expression in TGFbeta1 treatment: NCOA2 [1, 3]: 1.58 fold
- Individual variation of gene expression in TGFbeta1 treatment: NCOA3 [1, 3]: 6.21 fold
- Individual variation of gene expression in TGFbeta1 treatment: NCOA5 [1, 3]: 4.56 fold
- Individual variation of gene expression in TGFbeta1 treatment: NCOA6 [1, 3]: 2.82 fold
- Individual variation of gene expression in TGFbeta1 treatment: NCOR1 [1, 3]: 7.31 fold
- Individual variation of gene expression in TGFbeta1 treatment: PPARG [1, 3]: 17.71 fold
- Individual variation of gene expression in TGFbeta1 treatment: TIMP1 [1, 3]: 5.73 fold
- MMP1, collagenase 1 expression in TGFbeta1 treatment compared to control, from-to between individuals [1, 3]: (from −5.05 to 1.97) fold
- MMP2 gelatinase expression in TGFbeta1 treatment compared to control, from-to between individuals [1, 3]: (from −2.51 to 2.26) fold
- MMP3 stromelysin expression in TGFbeta1 treatment compared to control, from-to between individuals [1, 3]: (from −3.22 to 2.58) fold
- MMP7 expression in TGFbeta1 treatment compared to control, from-to between individuals [1, 3]: (from −29.96 to 2.84) fold
- MMP10, stromelysin 2 expression in TGFbeta1 treatment compared to control, from-to between individuals [1, 3]: (from −5.0 to 40.93) fold
- NCOA1 expression in TGFbeta1 treatment compared to control, from-to between individuals [1, 3]: (from −2.76 to 2.88) fold
- NCOA2 expression in TGFbeta1 treatment compared to control, from-to between individuals [1, 3]: (from −2.54 to −0.96) fold
- NCOA3 expression in TGFbeta1 treatment compared to control, from-to between individuals [1, 3]: (from −4.81 to 1.4) fold
- NCOA5 expression in TGFbeta1 treatment compared to control, from-to between individuals [1, 3]: (from −3.13 to 1.43) fold
- NCOA6 expression in TGFbeta1 treatment compared to control, from-to between individuals [1, 3]: (from 1.64 to 1.18) fold
- NCOR1 expression in TGFbeta1 treatment compared to control, from-to between individuals [1, 3]: (from −2.54 to 4.77) fold
- PPARG expression in TGFbeta1 treatment compared to control, from-to between individuals [1, 3]: (from −16.51 to 1.2) fold
- TIMP1 expression in TGFbeta1 treatment compared to control, from-to between individuals [1, 3]: (from −2.45 to 3.28) fold

Substance: palmitoys pentapeptide-3 [Matrixyl]
- combined score of expression stimulation of 5 genes (COL1A1, COL2A1, elastin, proteoglycan, TIMP1) per fibroblast isolate [2]: 3 groups of fibroblasts that have different response

Reference: US20080206770A1, “SCREENING METHODS USED TO IDENTIFY COMPOUNDS THAT MODULATE SKIN STROMAL CELLS (FIBROBLASTS) ABILITY TO MODIFY FUNCTION OF EXTRACELLULAR MATRIX” (priority 2007, published 2008)
